The values below come from US9156816B2 (priority 2010, dated 2015).

In one series the test system is Pythium aphanidermatum. The series can be described thus: Antimicrobial test (mycelia growth inhibition). The class given is cell-based. As to conditions: compound concentration of 1 ppm, PSY medium, 25° C., days 3 to 7 of culturing, read-out: mycelia growth inhibition rate. How it is done: The compound according to the present invention was dissolved in dimethylsulfoxide and diluted to double the prescribed concentration in a 96-well microplate using PSY medium to obtain a drug solution. On the other hand, a diluted dimethylsulfoxide solution was prepared using PSY medium for use as an untreated group.
A suspension of liquid-cultured test microorganisms (Pythium aphanidermatum) was mixed with an equal volume of the drug solution and cultured in a dark location at 25° C. Mycelia growth was observed on days 3 to 7 of culturing to determine mycelia growth inhibition rates.

Series [1] relates to tomato late blight pathogen (Phytophthora infestans). The series can be described thus: whole plant or invertebrate. The class given is in vivo. As to conditions: 96 h, read-out: control value.
Another series has as its system Pythium ultimum. The series can be described thus: Cucumber damping-off (PU) control test. The series is classed as in vivo. Particulars: Globisporangium ultimum, 168 h, soil irrigated with 30 ml emulsion at active ingredient concentration of 100 ppm, ratio of healthy seedlings on day 7 after planting vs untreated group. Here is the method: 40 ml of sterile soil were placed in plastic cups followed by leveling the surface of the soil. The soil was then irrigated with 30 ml of the aforementioned emulsion of Preparation Example 2 at an active ingredient concentration of 100 ppm. Following irrigation, cucumbers (variety: Sagami Hanjiro) were planted in the soil and covered with 20 ml of contaminated soil (containing Pythium ultimum) from above. The cups were then placed in plastic bags and allowed to stand undisturbed for 3 days in a constant temperature room at 25° C. (dark location […]). Next, the plants were removed from the bags and held in a constant temperature room at 25° C. using a light-dark cycle of 12 hours. On day 7 after planting, the ratios of healthy seedlings were compared between an untreated group and treated group to calculate control effects (control values).

In turn, `Cn1nnnc1/C(=N\OCc1cccc(NC(=O)C(C)(C)O)n1)c1ccccc1` [b-7] showed a melting point of 144 to 146 °C. The inhibition at 1 ppm in the series with Pythium aphanidermatum is at least 50%.

Regarding `CCOC(C)(OCC)C(=O)Nc1cccc(CO/N=C(/c2ccccc2)c2nnnn2C)n1.Cl` [a-33], the melting point fell in the range of 70 to 73 °C. Moreover, the inhibition at 1 ppm in the series with Pythium aphanidermatum is at least 50%.

Consider `COC(C)(C)C(=O)Nc1cccc(CO/N=C(/c2ccccc2)c2nnnn2C)n1` [b-6], for which the melting point is 104 to 105 °C. In addition, the inhibition at 1 ppm with Pythium aphanidermatum is at least 50%.

Take `COC(OC)C(=O)Nc1cccc(CO/N=C(/c2ccccc2)c2nnnn2C)n1` [a-3]: the melting point lay within 88 to 90 °C. Further, in the series on Pythium aphanidermatum, the inhibition at 1 ppm was at least 50%. The pest or weed control at 100 µg/mL in series [1] was at least 70%. Further, the pest or weed control at 100 ppm with Pythium ultimum was at least 50%.

With `Cn1nnnc1/C(=N\OCc1cccc(NC(=O)OC2CCOCC2)n1)c1ccccc1` [d-3], the melting point is 72 to 73 °C. Besides, in the series with Pythium aphanidermatum, the inhibition at 1 ppm was at least 50%. Further, in series [1], the pest or weed control at 100 µg/mL is at least 70%.

In turn, `Cn1nnnc1/C(=N\OCc1cccc(NC(=O)OC2CCOC2)n1)c1ccccc1` (stereo not drawn) [d-4] gave a melting point of 76 to 78 °C. Besides, in series [1], the pest or weed control at 100 µg/mL is at least 70%.

In the case of `COCC(C)(C)C(=O)Nc1cccc(CO/N=C(/c2ccccc2)c2nnnn2C)n1` [b-8], the melting point fell in the range of 60 to 61 °C. In the series on Pythium aphanidermatum, the inhibition at 1 ppm is at least 50%. Also, in the series on Pythium ultimum, the pest or weed control at 100 ppm is at least 50%.

`Cn1nnnc1/C(=N\OCc1cccc(NC(=O)OCC2COCO2)n1)c1ccccc1` (centres unmarked) [c-4]: the melting point is 104 to 105 °C. The inhibition at 1 ppm in the series on Pythium aphanidermatum was at least 50%. Also, in series [1], the pest or weed control at 100 µg/mL is at least 70%. The pest or weed control at 100 ppm in the series with Pythium ultimum was at least 50%.

In the case of `Cn1nnnc1/C(=N\OCc1cccc(NC(=O)C2SCCCS2)n1)c1ccccc1` [a-23], in the series on Pythium aphanidermatum, the inhibition at 1 ppm was at least 50%. For the same compound, in series [1], the pest or weed control at 100 µg/mL is at least 70%. Moreover, in the series on Pythium ultimum, the pest or weed control at 100 ppm is at least 50%.

As for `CCOC(SCC)C(=O)Nc1cccc(CO/N=C(/c2ccccc2)c2nnnn2C)n1` (centres unmarked) [a-26], the inhibition at 1 ppm with Pythium aphanidermatum is at least 50%. For the same compound, the pest or weed control at 100 µg/mL in series [1] is at least 70%. In addition, the pest or weed control at 100 ppm in the series on Pythium ultimum was at least 50%.

`CCOC(C)(OCCOC)C(=O)Nc1cccc(CO/N=C(/c2ccccc2)c2nnnn2C)n1` (centres unmarked) [a-31]: the inhibition at 1 ppm with Pythium aphanidermatum was at least 50%. For the same compound, in series [1], the pest or weed control at 100 µg/mL was at least 70%. For the same compound, the pest or weed control at 100 ppm in the series with Pythium ultimum is at least 50%.

With `COCCC(C)(C)C(=O)Nc1cccc(CO/N=C(/c2ccccc2)c2nnnn2C)n1` [b-10], the melting point lay in the range of 86 to 87 °C. The inhibition at 1 ppm with Pythium aphanidermatum is at least 50%. Also, in the series with Pythium ultimum, the pest or weed control at 100 ppm is at least 50%.

`CCOCCC(C)OC(=O)Nc1cccc(CO/N=C(/c2ccccc2)c2nnnn2C)n1` (stereo not drawn) [d-13]: in the series on Pythium aphanidermatum, the inhibition at 1 ppm was at least 50%. The pest or weed control at 100 µg/mL in series [1] is at least 70%. Moreover, in the series on Pythium ultimum, the pest or weed control at 100 ppm was at least 50%.

As to `CCOC(COC(=O)Nc1cccc(CO/N=C(/c2ccccc2)c2nnnn2C)n1)OCC` [c-10], the inhibition at 1 ppm in the series with Pythium aphanidermatum was at least 50%. For the same compound, the pest or weed control at 100 µg/mL in series [1] was at least 70%. Further, the pest or weed control at 100 ppm with Pythium ultimum was at least 50%.

In turn, `Cn1nnnc1/C(=N\OCc1cccc(NC(=O)CC2OCCCO2)n1)c1ccccc1` [a-14] gave a melting point of 107 to 108 °C. For the same compound, the inhibition at 1 ppm in the series on Pythium aphanidermatum was at least 50%. In series [1], the pest or weed control at 100 µg/mL is at least 70%. Also, the pest or weed control at 100 ppm in the series on Pythium ultimum is at least 50%.

As to `COCCCC(C)(C)OC(=O)Nc1cccc(CO/N=C(/c2ccccc2)c2nnnn2C)n1` [d-8], the inhibition at 1 ppm with Pythium aphanidermatum is at least 50%. The pest or weed control at 100 µg/mL in series [1] is at least 70%. In the series on Pythium ultimum, the pest or weed control at 100 ppm is at least 50%.

Regarding `COC(COC(=O)Nc1cccc(CO/N=C(/c2ccccc2)c2nnnn2C)n1)OC` [c-7, (Z)-(1-methyl-1H-tetrazol-5-yl)phenylmethanone-o-[2-(2,2-dimethoxyethoxycarbonylamino)pyridin-6-ylmethyl]oxime], the inhibition at 1 ppm in the series with Pythium aphanidermatum was at least 50%. In series [1], the pest or weed control at 100 µg/mL is at least 70%. Moreover, the pest or weed control at 100 ppm with Pythium ultimum was at least 50%.

In the case of `CCSC(SCC)C(=O)Nc1cccc(CO/N=C(/c2ccccc2)c2nnnn2C)n1` [a-22], in the series with Pythium aphanidermatum, the inhibition at 1 ppm was at least 50%. Further, the pest or weed control at 100 µg/mL in series [1] is at least 70%. Further, in the series with Pythium ultimum, the pest or weed control at 100 ppm was at least 50%.

Turning to `Cn1nnnc1/C(=N\OCc1cccc(NC(=O)C2OCCO2)n1)c1ccccc1` [a-4], the inhibition at 1 ppm in the series on Pythium aphanidermatum was at least 50%. Besides, the pest or weed control at 100 µg/mL in series [1] is at least 70%. For the same compound, in the series on Pythium ultimum, the pest or weed control at 100 ppm is at least 50%.

`Cn1nnnc1/C(=N\OCc1cccc(NC(=O)C2(C)OCCOCCO2)n1)c1ccccc1` [a-28]: the inhibition at 1 ppm with Pythium aphanidermatum was at least 50%. In addition, the pest or weed control at 100 µg/mL in series [1] is at least 70%. In addition, in the series with Pythium ultimum, the pest or weed control at 100 ppm was at least 50%.

Consider `Cn1nnnc1/C(=N\OCc1cccc(NC(=O)CC2OCCO2)n1)c1ccccc1` [a-7], for which the inhibition at 1 ppm in the series on Pythium aphanidermatum is at least 50%. Further, in series [1], the pest or weed control at 100 µg/mL was at least 70%. Moreover, the pest or weed control at 100 ppm in the series with Pythium ultimum is at least 50%.

For `COCC(C)C(=O)Nc1cccc(CO/N=C(/c2ccccc2)c2nnnn2C)n1` (centres unmarked) [b-3], the melting point lay in the range of 66 to 68 °C. In the series on Pythium aphanidermatum, the inhibition at 1 ppm was at least 50%. In addition, the pest or weed control at 100 ppm in the series on Pythium ultimum was at least 50%.

With `CCOCCCOC(=O)Nc1cccc(CO/N=C(/c2ccccc2)c2nnnn2C)n1` [d-15], in the series on Pythium aphanidermatum, the inhibition at 1 ppm is at least 50%. Further, the pest or weed control at 100 µg/mL in series [1] is at least 70%. In addition, the pest or weed control at 100 ppm with Pythium ultimum is at least 50%.

Consider `CCOC(CCOC(=O)Nc1cccc(CO/N=C(/c2ccccc2)c2nnnn2C)n1)OCC` [c-8], for which, in the series on Pythium aphanidermatum, the inhibition at 1 ppm was at least 50%. Moreover, in series [1], the pest or weed control at 100 µg/mL was at least 70%. Also, in the series on Pythium ultimum, the pest or weed control at 100 ppm is at least 50%.

With `CCOC(OCC)C(=O)Nc1cccc(CO/N=C(/c2ccccc2)c2nnnn2C)n1` [a-1], the inhibition at 1 ppm with Pythium aphanidermatum was at least 50%. For the same compound, in series [1], the pest or weed control at 100 µg/mL is at least 70%. Besides, the pest or weed control at 100 ppm in the series on Pythium ultimum was at least 50%.

With `CCOC(OC(=O)Nc1cccc(CO/N=C(/c2ccccc2)c2nnnn2C)n1)C(F)(F)F` (stereo not drawn) [d-1], the melting point fell in the range of 123 to 124 °C. For the same compound, the inhibition at 1 ppm with Pythium aphanidermatum is at least 50%. For the same compound, in series [1], the pest or weed control at 100 µg/mL was at least 70%.

Take `Cn1nnnc1/C(=N\OCc1cccc(NC(=O)C2(C)OCCCCCO2)n1)c1ccccc1` [a-27]: the inhibition at 1 ppm in the series on Pythium aphanidermatum is at least 50%. Besides, the pest or weed control at 100 µg/mL in series [1] was at least 70%. In addition, the pest or weed control at 100 ppm with Pythium ultimum was at least 50%.

For `COC(CC(C)(C)OC(=O)Nc1cccc(CO/N=C(/c2ccccc2)c2nnnn2C)n1)OC` [c-9], the inhibition at 1 ppm with Pythium aphanidermatum was at least 50%. In series [1], the pest or weed control at 100 µg/mL is at least 70%. In the series with Pythium ultimum, the pest or weed control at 100 ppm is at least 50%.

The term inhibition denotes the percentage by which the read-out fell short of the control. Usually melting point stands for the temperature of the solid-liquid transition.
